#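 Results reflect a 48-hour exposure of cells in 96-well plates to compound at five concentrations. At the GI50, growth is halved.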 Calls of active or inactive are those of the source. No stated cut-off is given here; in the data, active = GI50 up to about 1.1 µM and inactive = higher.
# What was measured:
# Test in all cases: NCI-60 cell line screen, 48 h
# A498 = system: A498
# A549 = system: A549
# CAKI-1 = system: CAKI-1
# CCRF-CEM = system: CCRF-CEM
# COLO 205 = system: COLO 205
# DLD-1 = system: DLD-1
# DMS-114 = system: DMS-114
# DMS-273 = system: DMS-273
# EKVX = system: EKVX
# HCC 2998 = system: HCC 2998
# HCT-116 = system: HCT-116
# HCT-15 = system: HCT-15
# HL-60 = system: HL-60
# HOP-18 = system: HOP-18
# HOP-62 = system: HOP-62
# HOP-92 = system: HOP-92
# HT-29 = system: HT-29
# IGROV-1 = system: IGROV-1
# K562 = system: K562
# KM-20L2 = system: KM-20L2
# KM12 = system: KM12
# LOX IMVI = system: LOX IMVI
# M19-MEL = system: M19-MEL
# MCF7 = system: MCF7
# MOLT-4 = system: MOLT-4
# Malme-3M = system: Malme-3M
# NCI-H226 = system: NCI-H226
# NCI-H23 = system: NCI-H23
# NCI-H460 = system: NCI-H460
# NCI-H522 = system: NCI-H522
# NCI/ADR-RES = system: NCI/ADR-RES
# OVCAR-3 = system: OVCAR-3
# OVCAR-4 = system: OVCAR-4
# OVCAR-5 = system: OVCAR-5
# OVCAR-8 = system: OVCAR-8
# RPMI-8226 = system: RPMI-8226
# RXF 393 = system: RXF 393
# SF-268 = system: SF-268
# SF-295 = system: SF-295
# SF-539 = system: SF-539
# SK-MEL-28 = system: SK-MEL-28
# SK-MEL-2 = system: SK-MEL-2
# SK-MEL-5 = system: SK-MEL-5
# SK-OV-3 = system: SK-OV-3
# SN12C = system: SN12C
# SNB-19 = system: SNB-19
# SNB-75 = system: SNB-75
# SNB-78 = system: SNB-78
# SW-620 = system: SW-620
# U-251 = system: U-251
# UACC-257 = system: UACC-257
# UACC-62 = system: UACC-62
# UO-31 = system: UO-31
# XF498 = system: XF498
# 786-0 = system: 786-0
# ACHN = system: ACHN
# LXFL 529 = system: LXFL 529
# M14 = system: M14
# SR = system: SR
# TK-10 = system: TK-10
smiles,measurement,setting,value
N/C(=N\O)N/N=C\c1ccc(O)c(O)c1O,GI50,A498,> 30.8 µM (inactive)
same,GI50,A549,> 58.7 µM (inactive)
same,GI50,CAKI-1,29.4 µM (inactive)
same,GI50,CCRF-CEM,17.3 µM (inactive)
same,GI50,COLO 205,12.9 µM (inactive)
same,GI50,DLD-1,23.8 µM (inactive)
same,GI50,DMS-114,21.2 µM (inactive)
same,GI50,DMS-273,13.6 µM (inactive)
same,GI50,EKVX,> 78.5 µM (inactive)
same,GI50,HCC 2998,36.9 µM (inactive)
same,GI50,HCT-116,27.5 µM (inactive)
same,GI50,HCT-15,19.2 µM
same,GI50,HL-60,17.2 µM (inactive)
same,GI50,HOP-18,> 100 µM (inactive)
same,GI50,HOP-62,> 41.1 µM (inactive)
same,GI50,HOP-92,> 55.3 µM (inactive)
same,GI50,HT-29,11.1 µM (inactive)
same,GI50,IGROV-1,57 µM (inactive)
same,GI50,K562,17.8 µM (inactive)
same,GI50,KM-20L2,26.7 µM (inactive)
same,GI50,KM12,26.7 µM (inactive)
same,GI50,LOX IMVI,16.3 µM (inactive)
same,GI50,M19-MEL,20.1 µM (inactive)
same,GI50,MCF7,16.7 µM (inactive)
same,GI50,MOLT-4,24.9 µM (inactive)
same,GI50,Malme-3M,> 100 µM (inactive)
same,GI50,NCI-H226,39.1 µM (inactive)
same,GI50,NCI-H23,24.4 µM (inactive)
same,GI50,NCI-H460,17.1 µM (inactive)
same,GI50,NCI-H522,24.1 µM (inactive)
same,GI50,NCI/ADR-RES,19.5 µM (inactive)
same,GI50,OVCAR-3,22.7 µM (inactive)
same,GI50,OVCAR-4,10.9 µM (inactive)
same,GI50,OVCAR-5,> 48.1 µM (inactive)
same,GI50,OVCAR-8,30.4 µM (inactive)
same,GI50,RPMI-8226,41.5 µM (inactive)
same,GI50,RXF 393,18.9 µM (inactive)
same,GI50,SF-268,60.1 µM (inactive)
same,GI50,SF-295,12.2 µM (inactive)
same,GI50,SF-539,> 100 µM (inactive)
same,GI50,SK-MEL-28,> 100 µM (inactive)
same,GI50,SK-MEL-2,> 46 µM (inactive)
same,GI50,SK-MEL-5,19.8 µM (inactive)
same,GI50,SK-OV-3,> 100 µM (inactive)
same,GI50,SN12C,19.5 µM (inactive)
same,GI50,SNB-19,> 51.9 µM (inactive)
same,GI50,SNB-75,17.3 µM (inactive)
same,GI50,SNB-78,> 51.3 µM (inactive)
same,GI50,SW-620,19.7 µM (inactive)
same,GI50,U-251,> 52.8 µM (inactive)
same,GI50,UACC-257,63.7 µM (inactive)
same,GI50,UACC-62,17.3 µM (inactive)
same,GI50,UO-31,> 100 µM (inactive)
same,GI50,XF498,> 100 µM (inactive)
CC(=O)OC1CCn2nnc(CO[Si](C)(C)C(C)(C)C)c21 (configuration not stated),GI50,786-0,> 100 µM (inactive)
same,GI50,A549,> 100 µM (inactive)
same,GI50,ACHN,> 100 µM (inactive)
same,GI50,CAKI-1,> 100 µM (inactive)
same,GI50,COLO 205,> 100 µM (inactive)
same,GI50,DLD-1,> 100 µM (inactive)
same,GI50,DMS-114,> 100 µM (inactive)
same,GI50,DMS-273,> 100 µM (inactive)
same,GI50,EKVX,> 100 µM (inactive)
same,GI50,HCC 2998,> 100 µM (inactive)
same,GI50,HCT-116,> 100 µM (inactive)
same,GI50,HCT-15,> 100 µM
same,GI50,HOP-18,> 100 µM (inactive)
same,GI50,HT-29,> 100 µM (inactive)
same,GI50,IGROV-1,> 100 µM (inactive)
same,GI50,K562,> 100 µM (inactive)
same,GI50,KM-20L2,> 100 µM (inactive)
same,GI50,KM12,> 100 µM (inactive)
same,GI50,LXFL 529,> 100 µM (inactive)
same,GI50,M14,> 100 µM (inactive)
same,GI50,MOLT-4,> 100 µM (inactive)
same,GI50,Malme-3M,> 100 µM (inactive)
same,GI50,NCI-H226,> 100 µM (inactive)
same,GI50,NCI-H23,> 100 µM (inactive)
same,GI50,NCI-H460,> 100 µM (inactive)
same,GI50,NCI-H522,> 100 µM (inactive)
same,GI50,OVCAR-3,> 100 µM (inactive)
same,GI50,OVCAR-4,> 100 µM (inactive)
same,GI50,OVCAR-5,> 100 µM (inactive)
same,GI50,OVCAR-8,> 100 µM (inactive)
same,GI50,RPMI-8226,> 100 µM (inactive)
same,GI50,RXF 393,> 100 µM (inactive)
same,GI50,SF-295,> 100 µM (inactive)
same,GI50,SF-539,> 100 µM (inactive)
same,GI50,SK-MEL-28,> 100 µM (inactive)
same,GI50,SK-MEL-2,> 100 µM (inactive)
same,GI50,SK-MEL-5,> 100 µM (inactive)
same,GI50,SK-OV-3,> 100 µM (inactive)
same,GI50,SN12C,> 100 µM (inactive)
same,GI50,SNB-19,> 100 µM (inactive)
same,GI50,SNB-75,21 µM (inactive)
same,GI50,SR,> 100 µM (inactive)
same,GI50,SW-620,> 100 µM (inactive)
same,GI50,TK-10,> 100 µM (inactive)
same,GI50,U-251,> 100 µM (inactive)
same,GI50,UACC-257,> 100 µM (inactive)
same,GI50,UO-31,> 100 µM (inactive)
same,GI50,XF498,> 100 µM (inactive)
